# Assay results as given in the NIST ThermoML archive (doi:10.1016/j.fluid.2004.09.013).
# Numbers after ± are expanded uncertainties.
# Conditions: for mass density: Fluid (supercritical or subcritical phases), Vibrating tube method
compound,measurement,setting,value
C=CCC [1-butene],mass density,"453.25 K, 9992 kPa",366.88 ± 0.87 kg/m3
same,mass density,"458.24 K, 5019 kPa",127.66 ± 0.62 kg/m3
same,mass density,"458.24 K, 14983 kPa",409.67 ± 0.92 kg/m3
same,mass density,"458.24 K, 20004 kPa",440.23 ± 1 kg/m3
same,mass density,"458.24 K, 29989 kPa",478.1 ± 1.2 kg/m3
same,mass density,"458.24 K, 34985 kPa",491.83 ± 1.3 kg/m3
same,mass density,"458.24 K, 39994 kPa",503.63 ± 1.4 kg/m3
same,mass density,"458.25 K, 9993 kPa",354.52 ± 0.85 kg/m3
same,mass density,"458.25 K, 25009 kPa",461.51 ± 1.1 kg/m3
same,mass density,"463.24 K, 5016 kPa",120.75 ± 0.6 kg/m3
same,mass density,"463.24 K, 14996 kPa",401.9 ± 0.91 kg/m3
same,mass density,"463.24 K, 19997 kPa",433.9 ± 1 kg/m3
same,mass density,"463.24 K, 25004 kPa",456.08 ± 1.1 kg/m3
same,mass density,"463.24 K, 30003 kPa",473.27 ± 1.2 kg/m3
same,mass density,"463.24 K, 34993 kPa",487.39 ± 1.3 kg/m3
same,mass density,"463.25 K, 9983 kPa",341.52 ± 0.83 kg/m3
same,mass density,"463.25 K, 39998 kPa",499.47 ± 1.4 kg/m3
same,mass density,"468.24 K, 5016 kPa",115 ± 0.58 kg/m3
same,mass density,"468.24 K, 9989 kPa",328.56 ± 0.8 kg/m3
same,mass density,"468.24 K, 14982 kPa",393.76 ± 0.89 kg/m3
same,mass density,"468.24 K, 19984 kPa",427.48 ± 0.99 kg/m3
same,mass density,"468.24 K, 24997 kPa",450.6 ± 1.1 kg/m3
same,mass density,"468.24 K, 30000 kPa",468.38 ± 1.2 kg/m3
same,mass density,"468.24 K, 35011 kPa",482.95 ± 1.3 kg/m3
same,mass density,"468.24 K, 39999 kPa",495.31 ± 1.4 kg/m3
same,mass density,"473.24 K, 5018 kPa",110.27 ± 0.55 kg/m3
same,mass density,"473.24 K, 9985 kPa",315.25 ± 0.78 kg/m3
same,mass density,"473.24 K, 19988 kPa",421.13 ± 0.98 kg/m3
same,mass density,"473.24 K, 24992 kPa",445.14 ± 1.1 kg/m3
same,mass density,"473.24 K, 29997 kPa",463.51 ± 1.2 kg/m3
same,mass density,"473.24 K, 35002 kPa",478.49 ± 1.2 kg/m3
same,mass density,"473.24 K, 39996 kPa",491.17 ± 1.3 kg/m3
same,mass density,"473.25 K, 14995 kPa",385.74 ± 0.88 kg/m3
same,mass density,"478.24 K, 5019 kPa",106.11 ± 0.53 kg/m3
same,mass density,"478.24 K, 9987 kPa",302.04 ± 0.75 kg/m3
same,mass density,"478.24 K, 14989 kPa",377.47 ± 0.86 kg/m3
same,mass density,"478.24 K, 19983 kPa",414.69 ± 0.97 kg/m3
same,mass density,"478.24 K, 24987 kPa",439.66 ± 1.1 kg/m3
same,mass density,"478.24 K, 30006 kPa",458.68 ± 1.1 kg/m3
same,mass density,"478.24 K, 35011 kPa",474.08 ± 1.2 kg/m3
same,mass density,"478.24 K, 39998 kPa",487.02 ± 1.3 kg/m3
same,mass density,"483.24 K, 5019 kPa",102.43 ± 0.51 kg/m3
same,mass density,"483.24 K, 9986 kPa",289.02 ± 0.72 kg/m3
same,mass density,"483.24 K, 14996 kPa",369.24 ± 0.85 kg/m3
same,mass density,"483.24 K, 19994 kPa",408.37 ± 0.95 kg/m3
same,mass density,"483.24 K, 24993 kPa",434.22 ± 1.1 kg/m3
same,mass density,"483.24 K, 30007 kPa",453.8 ± 1.1 kg/m3
same,mass density,"483.24 K, 35009 kPa",469.63 ± 1.2 kg/m3
same,mass density,"483.24 K, 39997 kPa",482.92 ± 1.3 kg/m3
same,mass density,"488.24 K, 5019 kPa",99.18 ± 0.48 kg/m3
same,mass density,"488.24 K, 9991 kPa",276.55 ± 0.7 kg/m3
same,mass density,"488.24 K, 14995 kPa",361.05 ± 0.83 kg/m3
same,mass density,"488.24 K, 20003 kPa",402.02 ± 0.94 kg/m3
same,mass density,"488.24 K, 24984 kPa",428.73 ± 1 kg/m3
same,mass density,"488.24 K, 29996 kPa",448.96 ± 1.1 kg/m3
same,mass density,"488.24 K, 35002 kPa",465.2 ± 1.2 kg/m3
same,mass density,"488.24 K, 39995 kPa",478.82 ± 1.3 kg/m3
same,mass density,"493.24 K, 5019 kPa",96.24 ± 0.46 kg/m3
same,mass density,"493.24 K, 9993 kPa",264.66 ± 0.67 kg/m3
same,mass density,"493.24 K, 14985 kPa",352.7 ± 0.82 kg/m3
same,mass density,"493.24 K, 19990 kPa",395.6 ± 0.93 kg/m3
same,mass density,"493.24 K, 24997 kPa",423.36 ± 1 kg/m3
same,mass density,"493.24 K, 30000 kPa",444.14 ± 1.1 kg/m3
same,mass density,"493.24 K, 35000 kPa",460.8 ± 1.2 kg/m3
same,mass density,"493.24 K, 39994 kPa",474.74 ± 1.3 kg/m3
same,mass density,"498.24 K, 5019 kPa",93.59 ± 0.44 kg/m3
same,mass density,"498.24 K, 9985 kPa",253.12 ± 0.65 kg/m3
same,mass density,"498.24 K, 14988 kPa",344.51 ± 0.8 kg/m3
same,mass density,"498.24 K, 19988 kPa",389.08 ± 0.92 kg/m3
same,mass density,"498.24 K, 25004 kPa",417.97 ± 1 kg/m3
same,mass density,"498.24 K, 30000 kPa",439.33 ± 1.1 kg/m3
same,mass density,"498.24 K, 35005 kPa",456.43 ± 1.2 kg/m3
same,mass density,"498.24 K, 39995 kPa",470.68 ± 1.3 kg/m3
same,mass density,"503.24 K, 5016 kPa",91.1 ± 0.42 kg/m3
same,mass density,"503.24 K, 9996 kPa",242.88 ± 0.63 kg/m3
same,mass density,"503.24 K, 14997 kPa",336.49 ± 0.79 kg/m3
same,mass density,"503.24 K, 19985 kPa",382.45 ± 0.9 kg/m3
same,mass density,"503.24 K, 25003 kPa",412.55 ± 1 kg/m3
same,mass density,"503.24 K, 29994 kPa",434.51 ± 1.1 kg/m3
same,mass density,"503.24 K, 34998 kPa",452.04 ± 1.2 kg/m3
same,mass density,"503.24 K, 39994 kPa",466.64 ± 1.3 kg/m3
same,mass density,"508.24 K, 5019 kPa",88.94 ± 0.41 kg/m3
same,mass density,"508.24 K, 9985 kPa",232.83 ± 0.6 kg/m3
same,mass density,"508.24 K, 14995 kPa",328.41 ± 0.77 kg/m3
same,mass density,"508.24 K, 20001 kPa",376.3 ± 0.89 kg/m3
same,mass density,"508.24 K, 25001 kPa",407.17 ± 1 kg/m3
same,mass density,"508.24 K, 29985 kPa",429.72 ± 1.1 kg/m3
same,mass density,"508.24 K, 34995 kPa",447.71 ± 1.2 kg/m3
same,mass density,"508.24 K, 39994 kPa",462.63 ± 1.3 kg/m3
same,mass density,"513.23 K, 19985 kPa",369.92 ± 0.88 kg/m3
same,mass density,"513.23 K, 35000 kPa",443.43 ± 1.2 kg/m3
same,mass density,"513.24 K, 5019 kPa",86.9 ± 0.39 kg/m3
same,mass density,"513.24 K, 9990 kPa",224.06 ± 0.58 kg/m3
same,mass density,"513.24 K, 14981 kPa",320.32 ± 0.76 kg/m3
same,mass density,"513.24 K, 24995 kPa",401.8 ± 0.99 kg/m3
same,mass density,"513.24 K, 30001 kPa",425.05 ± 1.1 kg/m3
same,mass density,"513.24 K, 39991 kPa",458.64 ± 1.3 kg/m3
same,mass density,"518.23 K, 5019 kPa",85.01 ± 0.38 kg/m3
same,mass density,"518.23 K, 14997 kPa",312.76 ± 0.74 kg/m3
same,mass density,"518.23 K, 19988 kPa",363.73 ± 0.87 kg/m3
same,mass density,"518.23 K, 25002 kPa",396.53 ± 0.98 kg/m3
same,mass density,"518.23 K, 30001 kPa",420.37 ± 1.1 kg/m3
same,mass density,"518.23 K, 35013 kPa",439.18 ± 1.2 kg/m3
same,mass density,"518.24 K, 9981 kPa",215.7 ± 0.56 kg/m3
same,mass density,"518.24 K, 39995 kPa",454.74 ± 1.3 kg/m3
same,mass density,"523.23 K, 5018 kPa",83.27 ± 0.37 kg/m3
same,mass density,"523.23 K, 9990 kPa",208.53 ± 0.58 kg/m3
same,mass density,"523.23 K, 14996 kPa",305.24 ± 0.77 kg/m3
same,mass density,"523.23 K, 19995 kPa",357.64 ± 0.87 kg/m3
same,mass density,"523.23 K, 25003 kPa",391.29 ± 0.97 kg/m3
same,mass density,"523.23 K, 30001 kPa",415.71 ± 1.1 kg/m3
same,mass density,"523.23 K, 35000 kPa",434.96 ± 1.2 kg/m3
same,mass density,"523.23 K, 40001 kPa",450.86 ± 1.2 kg/m3
same,Critical pressure,Liquid,4005.1 ± 11 kPa
same,Critical temperature,Liquid,419.29 ± 0.11 K
same,Critical density,"Liquid, visual observation in a variable volume cell:FP",237.88 ± 4.8 kg/m3
